From ChEMBL document CHEMBL1201862, “PubChem BioAssay data set” (2004)
Active and inactive are the calls of the source.

Legend:
Estrogen receptor = target: T1, Estrogen receptor (Homo sapiens, UniProt P03372); experiment: blockers of SRC-3 recruitment to ERα – biochemical, ELISA, streptavidin-HRP readout, orthogonal assay, confirmation (AID 1079)
T1 sequence (P03372 whole entry): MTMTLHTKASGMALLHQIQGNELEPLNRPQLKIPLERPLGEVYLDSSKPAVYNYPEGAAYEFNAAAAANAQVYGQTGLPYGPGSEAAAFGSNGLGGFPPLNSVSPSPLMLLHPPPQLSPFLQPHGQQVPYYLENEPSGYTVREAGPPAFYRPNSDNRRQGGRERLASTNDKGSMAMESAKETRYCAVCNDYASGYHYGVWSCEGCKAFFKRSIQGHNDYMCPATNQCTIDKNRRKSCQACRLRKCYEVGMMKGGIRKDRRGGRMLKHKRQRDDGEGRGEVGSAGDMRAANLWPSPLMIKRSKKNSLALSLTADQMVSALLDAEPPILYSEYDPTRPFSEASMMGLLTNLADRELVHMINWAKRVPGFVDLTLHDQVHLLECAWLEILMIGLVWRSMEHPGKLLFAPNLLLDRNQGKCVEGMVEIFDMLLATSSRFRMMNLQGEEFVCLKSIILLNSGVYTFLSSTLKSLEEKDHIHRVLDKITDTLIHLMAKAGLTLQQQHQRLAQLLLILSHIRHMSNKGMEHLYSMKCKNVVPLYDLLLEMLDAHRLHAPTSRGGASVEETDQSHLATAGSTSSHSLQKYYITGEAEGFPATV

[1] = target: Melanin-concentrating hormone receptor 1 (Homo sapiens, UniProt Q99705); experiment: Fluorescence-based counterscreen for antagonists of the G-protein coupled receptor 7 (GPR7): cell-based high throughput dose response assay to identify antagonists of the melanin-concentrating hormone receptor 1 (MCHR1).; format: functional
[2] = target: RNA-editing ligase 1, mitochondrial (Trypanosoma brucei brucei, UniProt P86926); experiment: inhibition of trypanosome RNA editing ligase – biochemical, fluorescence, Trypanosoma brucei, dose response (AID 1117295); format: functional
[3] = target: Neurotensin receptor type 1 (Homo sapiens, UniProt P30989); format: functional;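 further: Image-based confirmatory dose-response assay measuring agonist activity at NTR1; NTR1-expressing U2OS osteosarcoma cells imaged for beta-arrestin GFP spot formation; agonist potency where compounds increase beta-arrestin recruitment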
[4] = target: T2, Alkaline phosphatase, tissue-nonspecific isozyme (Homo sapiens, UniProt P05186)
T2 sequence (P05186 whole entry): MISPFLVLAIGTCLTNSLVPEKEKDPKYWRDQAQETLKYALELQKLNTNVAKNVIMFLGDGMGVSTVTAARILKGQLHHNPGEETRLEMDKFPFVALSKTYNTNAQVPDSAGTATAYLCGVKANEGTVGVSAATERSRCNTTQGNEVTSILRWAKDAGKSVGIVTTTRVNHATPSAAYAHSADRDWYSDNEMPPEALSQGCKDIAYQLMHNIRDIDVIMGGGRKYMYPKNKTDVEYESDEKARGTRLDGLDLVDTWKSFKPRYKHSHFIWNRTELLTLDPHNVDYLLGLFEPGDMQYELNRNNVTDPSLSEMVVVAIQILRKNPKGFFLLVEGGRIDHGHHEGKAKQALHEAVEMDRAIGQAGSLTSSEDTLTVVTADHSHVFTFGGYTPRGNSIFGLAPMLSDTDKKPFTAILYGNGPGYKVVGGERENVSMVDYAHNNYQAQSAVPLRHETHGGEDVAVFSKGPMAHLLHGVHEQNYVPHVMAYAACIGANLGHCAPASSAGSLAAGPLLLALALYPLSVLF

Cytochrome P450 3A4 = Cytochrome P450 3A4 (Homo sapiens, UniProt P08684); details: Potency;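 further: confirmatory qHTS run detecting inhibitors and substrates of CYP3A4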
Cytochrome P450 2C9 = Cytochrome P450 2C9 (Homo sapiens, UniProt P11712); details: Potency
[5] = target: T3, Heat shock 70 kDa protein 1A (Homo sapiens, UniProt P0DMV8); experiment: small-molecule inhibition of Hsp70 – biochemical, TR-FRET (AID 786)
Bcl-2-like protein 10 = target: T4, Bcl-2-like protein 10 (Homo sapiens, UniProt Q9HD36); experiment: Bcl-B/TR3 peptide binding disruption – biochemical, fluorescence polarization, FITC-TR3 peptide, selectivity assay for Bfl-1 inhibitor project, primary screen (AID 748);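 further: fluorescence polarization from a fluorescein-labelled TR3 peptide binding purified Bcl-B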
T4 sequence (Q9HD36 whole entry): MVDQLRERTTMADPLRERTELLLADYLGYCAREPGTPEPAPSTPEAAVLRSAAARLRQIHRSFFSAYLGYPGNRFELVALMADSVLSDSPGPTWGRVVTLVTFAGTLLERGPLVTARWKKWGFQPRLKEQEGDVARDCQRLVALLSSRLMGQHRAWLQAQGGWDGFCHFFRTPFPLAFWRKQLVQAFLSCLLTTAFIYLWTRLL

Bcl-2-related protein A1 [6] = target: T5, Bcl-2-related protein A1 (Mus musculus, UniProt Q07440); experiment: displacement of Bid BH3 peptide from Bfl-1 – biochemical, fluorescence polarization, FITC-Bid, mouse, primary screen (AID 432)
T5 sequence (Q07440 whole entry): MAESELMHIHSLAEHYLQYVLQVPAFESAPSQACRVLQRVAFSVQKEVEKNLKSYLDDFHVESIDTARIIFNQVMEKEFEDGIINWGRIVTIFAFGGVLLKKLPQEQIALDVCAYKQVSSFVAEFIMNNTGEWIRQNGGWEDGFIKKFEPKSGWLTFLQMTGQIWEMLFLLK

[7] = target: T3, Heat shock 70 kDa protein 1A; experiment: small molecules displacing fluorescent ligand from Hsp70 – biochemical, fluorescence polarization, primary screen (AID 583)
[8] = target: Mothers against decapentaplegic homolog 3 (Homo sapiens, UniProt P84022); experiment: inhibitors of SMAD-driven TGF-beta signaling – dose response (AID 715); format: functional
Bcl-2-related protein A1 [9] = target: T5, Bcl-2-related protein A1; experiment: small-molecule antagonists of Bfl-1/BH3 interaction – biochemical, TR-FRET, mouse Bfl-1, confirmation (AID 621);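 further: TR-FRET binding of GST-Bfl-1 to FITC-labelled Bid peptide via terbium antibody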
Estrogen receptor beta = Estrogen receptor beta (Homo sapiens, UniProt Q92731); experiment: blockers of SRC-3 recruitment to ERβ – biochemical, ELISA, streptavidin-HRP readout, orthogonal assay, confirmation (AID 1060)
[10] = Luminescence-based counterscreen assay for KLF5 inhibitors: dose response cell-based high throughput screening assay to identify cytotoxic compounds using the IEC-6 intestinal epithelial cell line. [Related pubchem assays: 1700 (Primary screen.), 1834 (Confirmation screen.), 1858 (Summary AID.), 1905 (Counterscreen.)]; format: functional
[11] = HEK-293T cell viability reduction – luminescence, B-cell screen hits, cytotoxicity control for BCR NF-kB inhibitor project, dose response (AID 489021); format: functional, cell-based;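 further: HEK-293T cells carrying an NF-kB luciferase reporter; cells exposed to compound for about 14 hours before viability readout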
[12] = mitochondrial function rescue without frataxin homolog – Friedreich's ataxia, plus single-dose screen, dose response (AID 1465); format: functional;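 further: yeast depleted of Yfh1p frataxin homolog grown on glycerol needing respiration; WST-1 tetrazolium dye reduction as measure of cellular dehydrogenase metabolic activity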
Nonstructural protein 1 = Nonstructural protein 1 (Influenza A virus, UniProt Q194T2); format: functional, Influenza A virus (A/California/07/2009(H1N1))
Chain of Nonstructural protein 1 (Q194T2 whole entry): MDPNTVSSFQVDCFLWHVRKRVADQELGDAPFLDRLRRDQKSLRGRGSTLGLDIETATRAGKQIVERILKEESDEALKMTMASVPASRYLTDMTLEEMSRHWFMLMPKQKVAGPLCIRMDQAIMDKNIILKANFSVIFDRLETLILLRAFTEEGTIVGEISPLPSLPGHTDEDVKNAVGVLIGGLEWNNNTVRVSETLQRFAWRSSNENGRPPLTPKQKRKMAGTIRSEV

T3 sequence (P0DMV8 whole entry): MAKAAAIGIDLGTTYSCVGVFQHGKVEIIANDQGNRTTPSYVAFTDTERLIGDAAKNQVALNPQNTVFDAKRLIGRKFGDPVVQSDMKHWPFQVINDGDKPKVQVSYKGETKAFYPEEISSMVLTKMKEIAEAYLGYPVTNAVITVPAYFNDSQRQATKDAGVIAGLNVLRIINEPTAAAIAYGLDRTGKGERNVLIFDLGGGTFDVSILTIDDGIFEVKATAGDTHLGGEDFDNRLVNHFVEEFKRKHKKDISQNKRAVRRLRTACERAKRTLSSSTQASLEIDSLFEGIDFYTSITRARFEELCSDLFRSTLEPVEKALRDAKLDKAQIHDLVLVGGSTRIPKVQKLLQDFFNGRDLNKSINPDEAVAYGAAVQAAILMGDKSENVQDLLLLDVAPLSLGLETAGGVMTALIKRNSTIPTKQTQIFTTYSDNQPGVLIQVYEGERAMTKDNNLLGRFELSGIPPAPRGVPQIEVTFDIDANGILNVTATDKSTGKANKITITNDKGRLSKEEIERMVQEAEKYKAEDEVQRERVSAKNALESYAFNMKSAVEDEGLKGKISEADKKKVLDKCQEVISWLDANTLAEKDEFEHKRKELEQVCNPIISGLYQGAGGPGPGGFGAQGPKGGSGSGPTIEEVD
Chain of Neurotensin receptor type 1 (P30989 whole entry): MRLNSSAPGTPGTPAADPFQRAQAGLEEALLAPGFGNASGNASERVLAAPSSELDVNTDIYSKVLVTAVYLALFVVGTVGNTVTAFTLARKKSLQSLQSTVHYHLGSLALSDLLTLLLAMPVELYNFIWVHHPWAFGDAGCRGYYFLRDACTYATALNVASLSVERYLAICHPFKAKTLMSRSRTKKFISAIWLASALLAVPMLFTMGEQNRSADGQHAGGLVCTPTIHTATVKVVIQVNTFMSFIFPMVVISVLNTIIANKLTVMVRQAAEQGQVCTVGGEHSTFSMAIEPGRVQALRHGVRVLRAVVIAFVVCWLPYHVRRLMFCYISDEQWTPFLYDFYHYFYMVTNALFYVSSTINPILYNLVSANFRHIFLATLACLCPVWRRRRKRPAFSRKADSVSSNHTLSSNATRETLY
Chain of Cytochrome P450 3A4 (P08684 whole entry): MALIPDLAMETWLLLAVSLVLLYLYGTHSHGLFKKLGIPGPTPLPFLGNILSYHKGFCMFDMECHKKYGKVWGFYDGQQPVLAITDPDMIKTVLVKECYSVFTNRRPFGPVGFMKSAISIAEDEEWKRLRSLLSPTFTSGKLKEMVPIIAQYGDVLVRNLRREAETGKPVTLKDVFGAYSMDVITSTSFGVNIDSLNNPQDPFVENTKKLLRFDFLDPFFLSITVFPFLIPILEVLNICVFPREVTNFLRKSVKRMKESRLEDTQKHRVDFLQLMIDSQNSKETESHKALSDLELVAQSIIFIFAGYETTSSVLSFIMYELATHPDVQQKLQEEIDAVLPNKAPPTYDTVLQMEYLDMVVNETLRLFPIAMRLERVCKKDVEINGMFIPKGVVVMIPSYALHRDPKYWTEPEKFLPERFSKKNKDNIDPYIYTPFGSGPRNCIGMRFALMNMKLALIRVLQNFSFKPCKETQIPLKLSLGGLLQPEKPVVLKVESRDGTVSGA
Chain of Cytochrome P450 2C9 (P11712 whole entry): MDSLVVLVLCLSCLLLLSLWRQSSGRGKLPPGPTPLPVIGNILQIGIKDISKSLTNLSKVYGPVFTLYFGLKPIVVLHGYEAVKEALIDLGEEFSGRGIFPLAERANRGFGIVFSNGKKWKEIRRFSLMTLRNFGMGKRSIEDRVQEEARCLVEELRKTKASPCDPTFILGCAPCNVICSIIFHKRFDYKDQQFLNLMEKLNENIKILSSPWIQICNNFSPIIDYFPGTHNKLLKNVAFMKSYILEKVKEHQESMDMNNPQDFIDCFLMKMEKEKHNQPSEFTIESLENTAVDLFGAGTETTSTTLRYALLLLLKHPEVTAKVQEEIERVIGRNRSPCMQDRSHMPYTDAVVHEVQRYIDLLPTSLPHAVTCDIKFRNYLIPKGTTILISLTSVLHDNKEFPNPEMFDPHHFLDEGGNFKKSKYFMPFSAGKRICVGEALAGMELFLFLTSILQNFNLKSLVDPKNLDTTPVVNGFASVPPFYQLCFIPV
Chain of Mothers against decapentaplegic homolog 3 (P84022 whole entry): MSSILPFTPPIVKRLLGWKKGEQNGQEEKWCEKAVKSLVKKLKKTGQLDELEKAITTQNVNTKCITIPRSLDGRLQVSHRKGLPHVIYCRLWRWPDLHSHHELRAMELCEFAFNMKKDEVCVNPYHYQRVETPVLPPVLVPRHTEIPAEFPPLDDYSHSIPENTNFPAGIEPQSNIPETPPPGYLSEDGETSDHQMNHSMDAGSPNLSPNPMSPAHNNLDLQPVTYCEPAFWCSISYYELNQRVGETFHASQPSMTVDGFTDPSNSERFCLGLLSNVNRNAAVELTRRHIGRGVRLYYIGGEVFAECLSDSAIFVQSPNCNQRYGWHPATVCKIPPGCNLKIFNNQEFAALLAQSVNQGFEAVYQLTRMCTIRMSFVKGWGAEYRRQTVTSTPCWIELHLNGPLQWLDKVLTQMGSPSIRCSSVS
Chain of RNA-editing ligase 1, mitochondrial (P86926 whole entry): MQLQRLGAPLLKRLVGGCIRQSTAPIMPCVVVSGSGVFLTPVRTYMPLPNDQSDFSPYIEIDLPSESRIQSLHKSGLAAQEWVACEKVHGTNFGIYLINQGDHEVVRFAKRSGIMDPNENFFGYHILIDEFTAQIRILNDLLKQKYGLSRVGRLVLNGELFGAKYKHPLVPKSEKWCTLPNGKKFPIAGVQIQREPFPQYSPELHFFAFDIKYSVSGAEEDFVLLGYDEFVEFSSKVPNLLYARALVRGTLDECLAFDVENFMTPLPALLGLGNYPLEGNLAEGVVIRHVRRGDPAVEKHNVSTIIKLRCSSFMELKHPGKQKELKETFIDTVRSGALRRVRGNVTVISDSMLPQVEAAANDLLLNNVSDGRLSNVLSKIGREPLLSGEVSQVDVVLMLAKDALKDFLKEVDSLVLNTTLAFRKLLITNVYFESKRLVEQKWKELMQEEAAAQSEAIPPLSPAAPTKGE
Chain of Estrogen receptor beta (Q92731 whole entry): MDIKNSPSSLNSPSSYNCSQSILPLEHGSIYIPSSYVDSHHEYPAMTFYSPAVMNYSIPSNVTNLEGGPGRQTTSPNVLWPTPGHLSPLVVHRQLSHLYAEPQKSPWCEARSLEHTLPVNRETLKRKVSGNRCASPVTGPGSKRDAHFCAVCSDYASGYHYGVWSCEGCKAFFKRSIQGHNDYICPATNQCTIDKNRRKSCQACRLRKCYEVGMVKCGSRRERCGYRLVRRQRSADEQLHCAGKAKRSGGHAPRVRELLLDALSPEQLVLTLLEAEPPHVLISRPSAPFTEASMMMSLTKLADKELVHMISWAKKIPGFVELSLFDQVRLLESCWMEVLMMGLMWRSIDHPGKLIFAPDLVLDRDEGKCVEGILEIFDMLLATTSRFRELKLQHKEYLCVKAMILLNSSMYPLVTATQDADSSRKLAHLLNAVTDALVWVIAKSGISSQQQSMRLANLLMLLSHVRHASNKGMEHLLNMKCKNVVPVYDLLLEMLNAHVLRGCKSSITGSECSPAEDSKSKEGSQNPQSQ
Chain of Melanin-concentrating hormone receptor 1 (Q99705 whole entry): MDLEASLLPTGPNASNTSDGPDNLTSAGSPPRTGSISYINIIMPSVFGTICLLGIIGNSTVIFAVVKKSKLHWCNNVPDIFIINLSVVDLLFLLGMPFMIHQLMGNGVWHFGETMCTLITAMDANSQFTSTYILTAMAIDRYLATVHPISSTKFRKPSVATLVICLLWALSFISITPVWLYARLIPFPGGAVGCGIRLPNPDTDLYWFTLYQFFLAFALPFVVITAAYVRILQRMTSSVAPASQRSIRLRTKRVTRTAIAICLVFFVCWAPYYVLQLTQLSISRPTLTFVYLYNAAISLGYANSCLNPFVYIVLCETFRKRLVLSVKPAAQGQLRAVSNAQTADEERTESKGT

## O=C(CCCn1c(=S)[nH]c2ccccc2c1=O)N1CCN(c2ccccc2O)CC1
Estrogen receptor
  IC50: 70 nM (not active)

## COCCNC1=N[C@@H](c2cccc(C(F)(F)F)c2)C(C(=O)OC)=C(C)N1Cc1ccccc1
[1]
  IC50: 14.7 µM (not active)
[2]
  IC50: > 96.6 µM (inactive)

## CC(C)Cn1c(N)c(C(=O)CSc2cc(Cl)ccc2Cl)c(=O)n(C)c1=O
[3]
  EC50: 16.5 µM (active)

## Cc1ccc(N(C(=O)c2ccn[nH]2)C(C(=O)NC2CCCC2)c2cccs2)cc1 (stereo not drawn)
[4]
  EC50: > 100 µM (not active)

## OC1c2ccccc2-c2nc3ccccc3cc21 (stereo not drawn)
Cytochrome P450 3A4
  AC50: 25.1 µM (inconclusive)
Cytochrome P450 2C9
  AC50: 25.1 µM (inconclusive)

## COc1cccc(C(=O)NC2CC3CCCC(C2)N3CC(=O)Nc2ccccc2)c1 (stereo not drawn)
[5]
  IC50: 11.4 µM (active)
Bcl-2-like protein 10
  IC50: 73.6 µM (inactive)
Bcl-2-related protein A1 [6]
  IC50: > 100 µM (not active)
[7]
  IC50: 45.4 µM (active)
[8]
  IC50: 9.46 µM (active)
Bcl-2-related protein A1 [9]
  IC50: > 100 µM (not active)
Estrogen receptor beta
  IC50: 44.6 µM (not active)

## Cc1ccc(/C=C2/SC(=S)N(CCCC(=O)Nc3ccc(O)cc3)C2=O)cc1
[10]
  IC50: 14.1 µM (not active)
[11]
  IC50: > 80 µM (inactive)

## CC(C)(C)C1=CC(=O)C(N2CCOCC2)=CC1=O
[12]
  EC50: > 100 µM (active)
Nonstructural protein 1
  IC50: > 100 µM (active)
